The subject of the assay is HIV. The assay is described as follows: MT4 assay: antiviral HIV activity (cell protection, cell titer glo readout at 96 hours). Type of assay: cell-based. As to conditions: Human immunodeficiency virus 1, MT4, 96 h, MT4 cells, cell titer glo readout at 96 hours, 10 point dose response; read-out: HIV MT4 Assay IC50. In a few lines: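 MT-4 cells infected with HIV, with inhibition readout by CellTiter-Glo luminescence at 96 h relative to no-compound control. Cytotoxicity measured in parallel under the same conditions. IC50 from a 10-point, 3-4-fold dilution series spanning >1000-fold, fitted with a four-parameter logistic equation.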
(ATP-based viability assays read luminescence as a measure of living cells.)

Structures are written as SMILES.

This passage reports IC50 results from US20150191469A1, “COMPOUNDS AND METHODS FOR TREATING HIV” (priority 2012, published 2015).

A word on the IC50: it is the concentration at which inhibition is half-maximal.

`Cc1nc2c(cc(C(=O)NC3Cc4ccccc4C3)n2C)c(-c2cc(F)c3c(c2C)CCCO3)c1[C@H](OC(C)(C)C)C(=O)O` [Example 271]: the IC50 was found to be 1.6 nM.

On to `Cc1nc2c(cc(-c3ccnc(N4C[C@@H]5CC[C@@H](C5)C4)c3)n2C)c(-c2cc(F)c3c(c2C)CCCO3)c1[C@H](OC(C)(C)C)C(=O)O` (atropisomer, axis not shown) [Example 111], for which the IC50 worked out at 27.5 nM.

As for `Cc1nc2c(cc(-c3ccnc(N4CCCN(C5COC5)CC4)c3)n2C)c(-c2cc(F)c3c(c2C)CCCO3)c1[C@H](OC(C)(C)C)C(=O)O` (atropisomer, axis not shown) [Example 85], the IC50 stood at 12.7 nM.

Consider `Cc1nc2c(cc(-c3nnc(N4CC5CN(C6COC6)CC5C4)o3)n2C)c(-c2cc(F)c3c(c2C)CCCO3)c1[C@H](OC(C)(C)C)C(=O)O` (stereo partly shown) [Example 309], for which the IC50 worked out at 46 nM.

With `Cc1nc2c(cc(CN3CCC[C@H](NC(=O)c4ccc5c(cnn5C)c4)C3)n2C)c(-c2cc(F)c3c(c2C)CCCO3)c1[C@H](OC(C)(C)C)C(=O)O` [Example 294], the IC50 came out at 38.6 nM.

With `COc1ccc(CNC(=O)c2cc3c(-c4cc(F)c5c(c4C)CCCO5)c([C@H](OC(C)(C)C)C(=O)O)c(C)nc3n2C)cc1` [Example 233], the IC50 stood at 3.6 nM.

Regarding `Cc1nc2c(cc(-c3nc(N4CCN(C5CCOCC5)C[C@H]4C)ns3)n2C)c(-c2cc(F)c3c(c2C)CCCO3)c1[C@H](OC(C)(C)C)C(=O)O` [Example 378], the IC50 was found to be 4.1 nM.

`Cc1nc2c(cc(-c3ccnc(-c4cnn(C5CCOCC5)c4)c3)n2C)c(-c2cc(F)c3c(c2C)CCCO3)c1[C@H](OC(C)(C)C)C(=O)O` (atropisomer, axis not shown) [Example 9, (2S)-2-(tert-butoxy)-2-[4-(8-fluoro-5-methyl-3,4-dihydro-2H-1-benzopyran-6-yl)-1,6-dimethyl-2-{2-[1-(oxan-4-yl)-1H-pyrazol-4-yl]pyridin-4-yl}-1H-pyrrolo[2,3-b]pyridin-5-yl]acetic acid]: the IC50 is 16.2 nM.

With `Cc1nc2c(cc(-c3ccnc(N4CCCN(C(=O)C5CCOCC5)CC4)c3)n2C)c(-c2cc(F)c3c(c2C)CCCO3)c1[C@H](OC(C)(C)C)C(=O)O` (atropisomer, axis not shown) [Example 108], the IC50 worked out at 131 nM.

`Cc1nc2c(cc(C(=O)NCc3ccc(Cl)cc3)n2C)c(-c2cc(F)c3c(c2C)CCCO3)c1[C@H](OC(C)(C)C)C(=O)O` [Example 263]: the IC50 worked out at 3.1 nM.

As for `Cc1nc2c(cc(-c3ccnc(N4CCN5CCCC5C4)c3)n2C)c(-c2cc(F)c3c(c2C)CCCO3)c1[C@H](OC(C)(C)C)C(=O)O` (stereo partly shown) [Example 116], the IC50 was determined as 40 nM.

Regarding `COCC1CCCN1C1CCN(c2nnc(-c3cc4c(-c5cc(F)c6c(c5C)CCCO6)c([C@H](OC(C)(C)C)C(=O)O)c(C)nc4n3C)o2)CC1` (stereo partly shown) [Example 339], the IC50 was 28.8 nM.

As to `Cc1nc2c(cc(-c3ccnc(-c4ccc5c(c4)NCC5)c3)n2C)c(-c2cc(F)c3c(c2C)CCCO3)c1[C@H](OC(C)(C)C)C(=O)O` (atropisomer, axis not shown) [Example 56], the IC50 came to 15 nM.

For `Cc1nc2c(cc(-c3nnc(-c4ccc5c(cnn5C)c4)o3)n2C)c(-c2cc(F)c3c(c2C)CCCO3)c1[C@H](OC(C)(C)C)C(=O)O` (atropisomer, axis not shown; (M)) [Example 28, (2S)(M)-2-(tert-butoxy)-2-(4-(8-fluoro-5-methylchroman-6-yl)-1,6-dimethyl-2-(5-(1-methyl-1H-indazol-5-yl)-1,3,4-oxadiazol-2-yl)-1H-pyrrolo[2,3-b]pyridin-5-yl)acetic acid], the IC50 was determined as 1.8 nM.

`COC(C)(C)CCNC(=O)c1cc2c(-c3cc(F)c4c(c3C)CCCO4)c([C@H](OC(C)(C)C)C(=O)O)c(C)nc2n1C` [Example 279]: the IC50 was 10 nM.

Regarding `Cc1nc2c(cc(C(=O)N3CCn4cnnc4C3)n2C)c(-c2cc(F)c3c(c2C)CCCO3)c1[C@H](OC(C)(C)C)C(=O)O` [Example 166], the IC50 stood at 50000 nM.

Turning to `COCCN(C)c1nnc(-c2cc3c(-c4cc(F)c5c(c4C)CCCO5)c([C@H](OC(C)(C)C)C(=O)O)c(C)nc3n2C)o1` [Example 307], the IC50 was 12.3 nM.

For the molecule `Cc1nc2c(cc(-c3ccnc(N4CCCN(C(=O)C5CCOC5)CC4)c3)n2C)c(-c2cc(F)c3c(c2C)CCCO3)c1[C@H](OC(C)(C)C)C(=O)O` (stereo partly shown) [Example 105], the IC50 was 54.6 nM.

`Cc1nc2c(cc(-c3nnc(N(C)C)o3)n2C)c(-c2cc(F)c3c(c2C)CCCO3)c1[C@H](OC(C)(C)C)C(=O)O` [Example 308]: the IC50 worked out at 14 nM.

`Cc1nc2c(cc(C(=O)NCc3cccc(Cl)c3)n2C)c(-c2cc(F)c3c(c2C)CCCO3)c1[C@H](OC(C)(C)C)C(=O)O` [Example 255]: the IC50 amounted to 3.8 nM.

As for `Cc1nc2c(cc(-c3ccnc(CNc4ccccn4)c3)n2C)c(-c2cc(F)c3c(c2C)CCCO3)c1[C@H](OC(C)(C)C)C(=O)O` [Example 76], the IC50 is 112 nM.

In the case of `Cc1nc2c(cc(-c3nnc(N4CCN(C5CCOCC5)C[C@H]4C)o3)n2C)c(-c2cc(F)c3c(c2C)CCCO3)c1[C@H](OC(C)(C)C)C(=O)O` [Example 328], the IC50 was found to be 4.2 nM.

Regarding `Cc1nc2c(cc(-c3ccnc(N4CCN(c5ccncc5)CC4)c3)n2C)c(-c2cc(F)c3c(c2C)CCCO3)c1[C@H](OC(C)(C)C)C(=O)O` (atropisomer, axis not shown) [Example 88], the IC50 turned out to be 13.4 nM.

With `Cc1nc2c(cc(-c3ccn(C4CN(C)C4)n3)n2C)c(-c2cc(F)c3c(c2C)CCCO3)c1[C@H](OC(C)(C)C)C(=O)O` (atropisomer, axis not shown; (M)) [Example 129, (2S)(M)-2-(tert-butoxy)-2-(-4-(8-fluoro-5-methylchroman-6-yl)-1,6-dimethyl-2-(1-(1-methylazetidin-3-yl)-1H-pyrazol-3-yl)-1H-pyrrolo[2,3-b]pyridin-5-yl)acetic acid], the IC50 came out at 45.2 nM.

Consider `Cc1noc(C)c1-c1cc(-c2cc3c(-c4cc(F)c5c(c4C)CCCO5)c([C@H](OC(C)(C)C)C(=O)O)c(C)nc3n2C)ccn1` (atropisomer, axis not shown) [Example 43], for which the IC50 was found to be 72.9 nM.

Take `Cc1nc2c(cc(-c3nsc(N4CCCCC4)n3)n2C)c(-c2cc(F)c3c(c2C)CCCO3)c1[C@H](OC(C)(C)C)C(=O)O` [Example 370]: the IC50 was 9.5 nM.

Consider `Cc1nc2c(cc(-c3ccnc(-c4ccc5c(cnn5C5COC5)c4)c3)n2C)c(-c2cc(F)c3c(c2C)CCCO3)c1[C@H](OC(C)(C)C)C(=O)O` [Example 65], for which the IC50 was found to be 2.4 nM.

For `Cc1nc2c(cc(-c3nnc(CN4CCCCC4)o3)n2C)c(-c2cc(F)c3c(c2C)CCCO3)c1[C@H](OC(C)(C)C)C(=O)O` [Example 313], the IC50 was 8.4 nM.

`Cc1nc2c(cc(-c3cc(N4CCN(C5CCOCC5)CC4)ccn3)n2C)c(-c2cc(F)c3c(c2C)CCCO3)c1[C@H](OC(C)(C)C)C(=O)O` [Example 362]: the IC50 is 5.8 nM.

Consider `Cc1nc2c(cc(-c3nnc(N4CCN(C(C)C)CC4)o3)n2C)c(-c2cc(F)c3c(c2C)CCCO3)c1[C@H](OC(C)(C)C)C(=O)O` [Example 342], for which the IC50 is 5.4 nM.

On to `Cc1nc2c(cc(-c3cc(-c4ccc5c(cnn5C)c4)[nH]n3)n2C)c(-c2cc(F)c3c(c2C)CCCO3)c1[C@H](OC(C)(C)C)C(=O)O` [Example 140], for which the IC50 was found to be 14.1 nM.

For the molecule `Cc1nc2c(cc(-c3nnc(N4CCN5CCC[C@H]5C4)o3)n2C)c(-c2cc(F)c3c(c2C)CCCO3)c1[C@H](OC(C)(C)C)C(=O)O` [Example 348], the IC50 is 3.1 nM.

Consider `Cc1nc2c(cc(/C=C/C(=O)NCCN3CCCC3=O)n2C)c(-c2cc(F)c3c(c2C)CCCO3)c1[C@H](OC(C)(C)C)C(=O)O` [Example 419], for which the IC50 stood at 3240 nM.

Consider `Cc1nc2c(cc(-c3ccc4c(c3)CCN(C)C4=O)n2C)c(-c2cc(F)c3c(c2C)CCCO3)c1[C@H](OC(C)(C)C)C(=O)O` (atropisomer, axis not shown) [Example 137], for which the IC50 was found to be 43.8 nM.

For `Cc1nc2c(cc(C(=O)NCCc3cccnc3)n2C)c(-c2cc(F)c3c(c2C)CCCO3)c1[C@H](OC(C)(C)C)C(=O)O` [Example 262], the IC50 was determined as 103 nM.

With `Cc1nc2c(cc(-c3ccnc(C(=O)N4CCN(c5ccccc5)CC4)c3)n2C)c(-c2cc(F)c3c(c2C)CCCO3)c1[C@H](OC(C)(C)C)C(=O)O` (atropisomer, axis not shown; (M)) [Example 145], the IC50 was found to be 45.3 nM.

Consider `Cc1nc2c(cc(-c3nnc(N(C)CCN4CCOCC4)o3)n2C)c(-c2cc(F)c3c(c2C)CCCO3)c1[C@H](OC(C)(C)C)C(=O)O` [Example 343], for which the IC50 came to 10.6 nM.

On to `Cc1nc2c(cc(-c3nnc(N4CC[C@H](N(C)C)C4)o3)n2C)c(-c2cc(F)c3c(c2C)CCCO3)c1[C@H](OC(C)(C)C)C(=O)O` [Example 332], for which the IC50 was found to be 23.8 nM.

For the molecule `Cc1nc2c(cc(-c3nnc(N4CCN(C)CC4)o3)n2C)c(-c2cc(F)c3c(c2C)CCCO3)c1[C@H](OC(C)(C)C)C(=O)O` [Example 312], the IC50 is 19.9 nM.

Regarding `COCCC(=O)N1CCCN(c2cc(-c3cc4c(-c5cc(F)c6c(c5C)CCCO6)c([C@H](OC(C)(C)C)C(=O)O)c(C)nc4n3C)ccn2)CC1` (atropisomer, axis not shown) [Example 125], the IC50 worked out at 41.5 nM.

On to `Cc1nc2c(cc(CCc3ccncc3)n2C)c(-c2cc(F)c3c(c2C)CCCO3)c1[C@H](OC(C)(C)C)C(=O)O` [Example 285], for which the IC50 came out at 46.6 nM.

In the case of `Cc1nc2c(cc(CN3CCCCC3)n2C)c(-c2cc(F)c3c(c2C)CCCO3)c1[C@H](OC(C)(C)C)C(=O)O` (atropisomer, axis not shown; (M)) [Example 288, (2S)(M)-2-(tert-butoxy)-2-(-4-(8-fluoro-5-methylchroman-6-yl)-1,6-dimethyl-2-(piperidin-1-ylmethyl)-1H-pyrrolo[2,3-b]pyridin-5-yl)acetic acid], the IC50 turned out to be 250 nM.

As for `Cc1nc2c(cc(-c3ccnc(-c4ccc5nccn5c4)c3)n2C)c(-c2cc(F)c3c(c2C)CCCO3)c1[C@H](OC(C)(C)C)C(=O)O` (atropisomer, axis not shown) [Example 34], the IC50 is 4.2 nM.
